Assay: Affinity for bacterial ZipA-FtsZ protein-protein interaction
Parameters: species or system Escherichia coli

Row | Kd | SMILES
1 | 73.9 µM | CC(=O)Nc1cccc(-c2ccc3nnc(-c4ccccc4)n3n2)c1
2 | 85.1 µM | CC(=O)N(C)c1cccc(-c2ccc3nnc(-c4cccnc4)n3n2)c1

Reference: ChEMBL document CHEMBL1144349, “A shape-based 3-D scaffold hopping method and its application to a bacterial protein-protein interaction” (J Med Chem, 2005)
